Consider 29 compounds from PubChem BioAssay AID1406 (The Scripps Research Institute Molecular Screening Center, 2008).

Broadly, the EC50 is the midpoint of the concentration-response curve.

The source made the active and inactive calls.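 Rule for the calls: active = STAT1 reporter activators whose half-maximal activating concentration EC50 is 10 µM or lower; inactive = EC50 above 10 µM or no activation.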 Bounds are passed on as bounds.

The test system of one test is NIH 3T3 STAT1 luciferase reporter, luminescence. The experiment in a line: STAT1 transcription enhancement, IFN-gamma induced – cell-based, NIH 3T3, luciferase luminescence, counter-screen for STAT3 activator project, dose response (AID 1406).
Settings: not given
A general note: A counterscreen serves to expose hits that act by an unwanted route or on another target.
On to `CC1=NN(c2ccccc2)C(=O)/C1=C/c1c(O)[nH]c(=O)[nH]c1=O`, for which the EC50 is > 55.7 µM (inactive).

Staying with this test, now noted: cells stimulated with IFN-gamma at EC80.
Consider `O=C(Cc1cccs1)Nc1ccccn1`, for which the EC50 was > 55.7 µM (inactive).
For `Cc1cc(-c2ccc(Cl)cc2)c(C#N)c(N)n1`, the EC50 is > 55.7 µM (inactive).
On the same count and under the same terms, the value for `Cc1ccccc1C1c2[nH]c3ccccc3c2CCN1C(=O)c1ccc(=O)n(C)n1` (centres undefined) was > 55.7 µM (inactive).
On the same count and under the same terms, next, `CN1C(=O)c2ccccc2C(C(=O)NCCCN2CCCC2=O)C1c1c[nH]c2ccccc12` (centres undefined): > 55.7 µM (inactive).
Same read-out and setting: the value for `Cc1nc(/N=C(\N)Nc2ccccc2)nc2ccccc12` was > 55.7 µM (inactive); that for `CCC(CC)NC(=O)Cc1ccccc1[N+](=O)[O-]` was > 55.7 µM (inactive).
On to `N#Cc1cn(CC(=O)O)c2ccccc12`, for which the EC50 is > 55.7 µM (inactive).
Take `Cn1nc(-c2ccc(Cl)cc2)c2cc(C(=O)NCC3CCCO3)sc21` (centres undefined): the EC50 was > 55.7 µM (inactive).
Take `Cn1nc(-c2ccc(Cl)cc2)c2cc(C(=O)NCCCN3CCOCC3)sc21`: the EC50 is > 55.7 µM (inactive).
The same measure, in the same setting: next, `O=C(Cc1c[nH]c2ccccc12)Nc1nc2ccccc2[nH]1`: > 55.7 µM (inactive).
Same read-out and setting: next, `CCn1c(C(=O)Nc2ccsc2C(=O)OC)cc2sc(Cl)cc21`: > 55.7 µM (inactive).
Same read-out and setting: next, `CC1Cc2ccccc2N1Cc1cc(=O)n2ccsc2n1` (centres undefined): > 55.7 µM (inactive); `CCOc1cc(-c2ccc(N)c(OCC)c2)ccc1N`: > 55.7 µM (inactive); `O=C(O)C1CC=CCC1C(=O)Nc1ccc(S(=O)(=O)N2CCCc3ccccc32)cc1` (centres undefined): > 55.7 µM (inactive).
Consider `COC(=O)c1n[nH]c2ccccc12`, for which the EC50 is > 55.7 µM (inactive).
Still for that read-out and setting: next, `COc1ccc(Cl)cc1-c1nc(-c2ccc(Br)o2)no1`: > 55.7 µM (inactive); `O=C(Cc1c[nH]c2ccccc12)Nc1nnc(C2CC2)s1`: > 55.7 µM (inactive).
Same read-out and setting: the value for `NNc1ncnc2sc3c(c12)CCC3` was > 55.7 µM (inactive).
The same measure, in the same setting: next, `CN(Cc1ccccc1)Cc1c[nH]c2ccccc12`: > 55.7 µM (inactive); `COc1ccccc1C(=O)NNC(=O)c1ccc(NC(=O)C(C)C)cc1`: > 55.7 µM (inactive).
On to `Cc1cccc2c1NC(=O)/C2=C\C(=O)c1cccs1`, for which the EC50 is > 55.7 µM (inactive).
The same measure, in the same setting: the value for `CC(OC(=O)c1cccnc1SCc1cc(=O)n2ccccc2n1)c1ccccn1` (centres undefined) was > 55.7 µM (inactive); that for `COc1ccccc1-c1nnc(SCC(=O)NC2CCCCC2)o1` was > 55.7 µM (inactive).
`CCCNC(=O)Cn1c2ccccc2c2nc(=O)cc(C)n21`: the EC50 is > 55.7 µM (inactive).
Consider `c1ccc2c(c1)CCCN2c1nc2ccccc2n2cnnc12`, for which the EC50 is > 55.7 µM (inactive).
The same measure, in the same setting: next, `CCN(CC)S(=O)(=O)c1ccc(-c2nnc3sc4cccc(C)c4n23)cc1`: > 55.7 µM (inactive); `COc1cc(NC(=O)c2cc(C(C)C)on2)c(OC)cc1Cl`: > 55.7 µM (inactive).
The same measure, in the same setting: the value for `COC(=O)NNC(=O)c1ccccc1OC` was > 55.7 µM (inactive).
